pIC50: −log10 of the molar value.
Tests used:
HeLa cells = assay: [3H] Adenosine uptake assay; assay type: cell-based; conditions: Homo sapiens, HeLa, accumulation of tritiated adenosine into HeLa cells; compound concentration range 10 μM to 0.032 nM; read-out: ADU inhibition IC50 (adenosine uptake inhibition potency)
Method in brief: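 Accumulation of tritiated adenosine in adherent HeLa cells, detected by scintillant-plate coincidence counting, gives IC50 via 4-parameter robust fit. Compound (constant 0.25% DMSO) applied 30 min ahead, then 60 min radiolabel exposure (added from 500 nM solution), ambient conditions, HBSS with 5% FBS.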

[1] = molecular target: BTK enzyme (recombinant full-length BTK, hBTK) (Homo sapiens (Human), UniProt Q06187); assay: Btk enzyme activity assay, LANCE TR-FRET; assay type: biochemical; conditions: 50 pM hBTK, 2 μM biotin-A5-peptide, 25 μM ATP; 60 minute compound & enzyme incubation; read-out: BTK binding IC50
Chain of BTK enzyme (recombinant full-length BTK, hBTK) (Q06187 whole entry): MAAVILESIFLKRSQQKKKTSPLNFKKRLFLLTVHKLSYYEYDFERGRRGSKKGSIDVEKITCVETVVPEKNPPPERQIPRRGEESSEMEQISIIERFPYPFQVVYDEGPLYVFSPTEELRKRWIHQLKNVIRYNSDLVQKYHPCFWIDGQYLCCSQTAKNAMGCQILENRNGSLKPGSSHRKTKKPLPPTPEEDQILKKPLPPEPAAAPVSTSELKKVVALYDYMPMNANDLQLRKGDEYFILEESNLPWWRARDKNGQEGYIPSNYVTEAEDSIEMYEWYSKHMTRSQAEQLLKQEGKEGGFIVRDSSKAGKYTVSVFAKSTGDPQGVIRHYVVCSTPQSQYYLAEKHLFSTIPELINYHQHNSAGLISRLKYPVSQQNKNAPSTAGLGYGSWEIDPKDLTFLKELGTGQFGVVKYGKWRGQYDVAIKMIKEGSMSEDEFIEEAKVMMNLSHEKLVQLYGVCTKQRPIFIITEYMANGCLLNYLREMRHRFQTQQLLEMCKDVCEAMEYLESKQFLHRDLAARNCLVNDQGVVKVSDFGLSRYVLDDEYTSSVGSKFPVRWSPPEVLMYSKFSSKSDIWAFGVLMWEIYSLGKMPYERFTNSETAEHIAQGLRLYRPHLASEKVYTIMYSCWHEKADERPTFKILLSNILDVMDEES
Experimental: Btk Enzyme Activity Assay Methods
BTK enzymatic activity was determined with the LANCE (Lanthanide Chelate Excite) TR-FRET (Time-resolved fluorescence resonance energy transfer) assay. […] After 60 minutes incubation with detection reagents, reaction plates were read on a PerkinElmer EnVision plate reader using standard TR-FRET protocol.

Q: With `Nc1nccn2c([C@@H]3CCC[C@H](C(=O)O)C3)nc(-c3ccc(C(=O)Nc4cc(C5CC5)ccn4)cc3F)c12` [Example 9, (1S,3R)-3-(8-amino-1-{4-[(4-cyclopropyl-pyridin-2-yl)carbamoyl]-2-fluorophenyl}imidazo[1,5-a]pyrazin-3-yl)cyclohexane-carboxylic acid] as the compound, how does the pIC50 (HeLa cells) read?
A: The pIC50 was 5.36.

Q: What about the pIC50 [1] of the same compound?
A: The pIC50 was 8.92.

Source: patent US10087188B2, “Benzamide imidazopyrazine Btk inhibitors” (MERCK SHARP & DOHME CORP., priority 2014, dated 2018)
